Data as given in ChEMBL document CHEMBL3301562, “MMV Box screening against Plasmodium falciparum protein kinases and aminoacyl tRNA synthetases”.

Legend:
Type in all cases: functional
[1] = target: T1, Calcium-dependent protein kinase 4 (Plasmodium falciparum (isolate 3D7), UniProt Q8IBS5); assay: MMV: CDPK4 Protein kinase inhibition assay using recombinant PfCDPK4, syntide2 peptide substrate, ATP and KinaseGlo to measure % inhibition at 1 uM MMV box compound.
T1 sequence (Q8IBS5 whole entry): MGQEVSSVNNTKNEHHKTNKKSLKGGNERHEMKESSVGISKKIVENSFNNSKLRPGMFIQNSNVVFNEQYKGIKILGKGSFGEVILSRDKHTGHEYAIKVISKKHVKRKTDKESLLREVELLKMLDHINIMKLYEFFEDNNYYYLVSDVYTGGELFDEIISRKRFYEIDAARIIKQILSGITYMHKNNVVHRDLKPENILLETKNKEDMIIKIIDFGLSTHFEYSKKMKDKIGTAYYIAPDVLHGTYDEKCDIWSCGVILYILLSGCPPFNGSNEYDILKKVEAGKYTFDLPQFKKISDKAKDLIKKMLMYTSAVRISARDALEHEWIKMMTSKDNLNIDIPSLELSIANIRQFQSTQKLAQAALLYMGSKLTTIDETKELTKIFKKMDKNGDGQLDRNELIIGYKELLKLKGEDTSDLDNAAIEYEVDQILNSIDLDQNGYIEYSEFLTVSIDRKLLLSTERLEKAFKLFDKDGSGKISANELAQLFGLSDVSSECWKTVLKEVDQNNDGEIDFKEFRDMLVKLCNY

[2] = target: T2, Putative uncharacterized protein pk7 (Plasmodium falciparum, UniProt O96214); assay: Final concentrations were 1 uM ATP, 2 mM DTT, 20 mM MgCl2, 2 mM MnCl2, 0.01% BSA, and 6 ug/ml PK7, in a buffer of 20 mM Tris-HCl (pH 7.5). The enzyme itself was the only substrate present (since autophosphorylation occurs); 100 uM 1NA-PP1 was used as a control inhibitor. Incubation time was 3 hours.
T2 sequence (O96214 whole entry): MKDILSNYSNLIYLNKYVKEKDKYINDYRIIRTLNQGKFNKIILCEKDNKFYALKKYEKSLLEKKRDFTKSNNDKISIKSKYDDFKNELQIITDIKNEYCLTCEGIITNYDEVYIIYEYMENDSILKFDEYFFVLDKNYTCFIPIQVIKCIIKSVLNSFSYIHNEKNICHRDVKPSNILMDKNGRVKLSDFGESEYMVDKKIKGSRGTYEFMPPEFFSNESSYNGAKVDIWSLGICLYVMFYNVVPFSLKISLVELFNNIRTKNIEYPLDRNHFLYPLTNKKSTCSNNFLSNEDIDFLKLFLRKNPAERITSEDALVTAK

[3] = target: T3, Mitogen-activated protein kinase (Plasmodium falciparum, UniProt Q25917); assay: Final concentrations were 1 uM ATP, 0.5 mM DTT, 1 mM MgCl2, 0.5 mg/mL BSA, and 10 ug/ml MAP2 in a buffer of 50 mM HEPES (pH 7.0). 0.5 mg/mL histone III-S served as the substrate (13); 100 uM AMP-PNP, an ATP analog, was used as a control inhibitor. Incubation time was 4 hours.
T3 sequence (Q25917 whole entry): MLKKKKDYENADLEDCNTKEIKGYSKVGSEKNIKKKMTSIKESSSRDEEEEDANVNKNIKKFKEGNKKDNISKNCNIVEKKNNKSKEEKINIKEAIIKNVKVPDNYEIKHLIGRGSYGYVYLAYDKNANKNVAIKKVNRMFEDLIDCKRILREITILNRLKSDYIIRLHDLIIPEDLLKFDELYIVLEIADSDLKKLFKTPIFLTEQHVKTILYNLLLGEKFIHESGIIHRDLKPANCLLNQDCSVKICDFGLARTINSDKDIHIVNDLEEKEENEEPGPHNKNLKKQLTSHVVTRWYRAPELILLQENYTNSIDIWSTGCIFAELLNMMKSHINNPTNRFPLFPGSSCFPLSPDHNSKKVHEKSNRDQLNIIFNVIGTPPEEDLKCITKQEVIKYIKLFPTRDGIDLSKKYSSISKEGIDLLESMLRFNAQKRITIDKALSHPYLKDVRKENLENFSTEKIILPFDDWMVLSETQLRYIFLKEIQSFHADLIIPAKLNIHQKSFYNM

[4] = target: T4, Cdk-related protein kinase 6 (Plasmodium falciparum, UniProt O77239); assay: Final concentrations were 1.5 uM ATP, 5 mM MnCl2, and 15 ug/ml PK6 in a buffer of 100 mM Tris-HCl (pH 7.5). 50 ug/mL MBP was provided as the substrate; 10 uM staurosporine was used as a control inhibitor. Incubation time was 3 hours and 40 minutes.The catalytic activity of each kinase was considered proportional to ATP consumed, as determined from measurements of residual [ATP] with the luciferase-based reagent Kinase-Glo (Promega) following incubation. Luminescence (proportional to residual [ATP]) was measured on the plate readers FLx800 (BioTek Instruments, Winooski, VT, USA) and MicroBeta2.
T4 sequence (O77239 whole entry): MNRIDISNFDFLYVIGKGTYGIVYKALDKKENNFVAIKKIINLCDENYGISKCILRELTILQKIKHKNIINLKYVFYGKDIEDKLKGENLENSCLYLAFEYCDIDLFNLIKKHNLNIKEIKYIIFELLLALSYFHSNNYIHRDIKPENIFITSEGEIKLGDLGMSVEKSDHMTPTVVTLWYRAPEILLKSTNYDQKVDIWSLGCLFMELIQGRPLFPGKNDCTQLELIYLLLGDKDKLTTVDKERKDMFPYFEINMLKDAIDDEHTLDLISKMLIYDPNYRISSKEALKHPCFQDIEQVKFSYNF

[5] = target: T5, Proline--tRNA ligase (Plasmodium falciparum (isolate 3D7), UniProt Q8I5R7); assay: MMV: ProRS recombinant Plasmodium falciparum Prolyl-tRNA-synthetase, assay with yeast tRNA, ATP, and proline and 3 uM MMV malaria box compound, assay read out with kinase glo as % inhibition.
T5 sequence (Q8I5R7 whole entry): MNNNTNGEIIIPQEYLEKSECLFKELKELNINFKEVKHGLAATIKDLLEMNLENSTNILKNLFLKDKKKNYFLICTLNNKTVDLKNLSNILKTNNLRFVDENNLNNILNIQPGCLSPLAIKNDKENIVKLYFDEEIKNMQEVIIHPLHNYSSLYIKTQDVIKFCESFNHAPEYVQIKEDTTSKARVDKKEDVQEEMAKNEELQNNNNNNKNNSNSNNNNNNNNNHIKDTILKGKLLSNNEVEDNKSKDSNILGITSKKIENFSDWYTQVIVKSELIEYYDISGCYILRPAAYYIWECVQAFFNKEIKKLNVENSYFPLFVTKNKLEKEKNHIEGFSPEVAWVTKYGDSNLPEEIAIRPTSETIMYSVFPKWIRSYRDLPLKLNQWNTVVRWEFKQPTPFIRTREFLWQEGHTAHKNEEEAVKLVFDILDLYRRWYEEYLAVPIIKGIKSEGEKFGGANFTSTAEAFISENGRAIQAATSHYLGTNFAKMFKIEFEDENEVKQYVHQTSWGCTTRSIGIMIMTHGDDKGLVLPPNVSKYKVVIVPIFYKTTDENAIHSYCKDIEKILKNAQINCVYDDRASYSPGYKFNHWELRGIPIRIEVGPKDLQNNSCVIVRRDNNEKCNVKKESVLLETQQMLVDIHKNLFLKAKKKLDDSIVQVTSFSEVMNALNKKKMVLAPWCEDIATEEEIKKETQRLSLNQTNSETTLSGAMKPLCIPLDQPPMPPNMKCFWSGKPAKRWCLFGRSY

[6] = target: Lysine--tRNA ligase (Plasmodium falciparum (isolate 3D7), UniProt Q8IDJ8); assay: MMV: KRS recombinant Plasmodium falciparum Lysyl-tRNA-synthetase, assay with yeast tRNA, ATP, and lysine and 3 uM MMV malaria box compound, assay read out with kinase glo as % inhibition.
[7] = target: Calcium-dependent protein kinase 1 (Plasmodium falciparum, UniProt P62344); assay: MMV: CDPK1 Protein kinase inhibition assay using recombinant PfCDPK1, syntide 2 peptide substrate, ATP and KinaseGlo to measure % inhibition at 1 uM MMV box compound.
Sequence of Calcium-dependent protein kinase 1 (P62344 whole entry): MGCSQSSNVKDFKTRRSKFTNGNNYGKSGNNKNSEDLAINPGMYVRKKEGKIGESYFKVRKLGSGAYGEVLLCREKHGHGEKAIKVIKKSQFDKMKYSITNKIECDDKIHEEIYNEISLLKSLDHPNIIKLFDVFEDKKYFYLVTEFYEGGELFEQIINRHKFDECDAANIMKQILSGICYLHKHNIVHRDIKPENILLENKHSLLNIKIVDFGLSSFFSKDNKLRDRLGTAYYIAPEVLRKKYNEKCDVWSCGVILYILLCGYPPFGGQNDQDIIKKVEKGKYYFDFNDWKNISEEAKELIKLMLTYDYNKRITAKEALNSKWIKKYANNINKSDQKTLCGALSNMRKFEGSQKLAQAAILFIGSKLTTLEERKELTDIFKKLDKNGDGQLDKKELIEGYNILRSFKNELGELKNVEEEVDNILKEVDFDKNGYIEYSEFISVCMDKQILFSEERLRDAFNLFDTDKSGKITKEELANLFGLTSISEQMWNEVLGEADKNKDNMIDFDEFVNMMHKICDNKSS

Sequence of Lysine--tRNA ligase (Q8IDJ8 whole entry): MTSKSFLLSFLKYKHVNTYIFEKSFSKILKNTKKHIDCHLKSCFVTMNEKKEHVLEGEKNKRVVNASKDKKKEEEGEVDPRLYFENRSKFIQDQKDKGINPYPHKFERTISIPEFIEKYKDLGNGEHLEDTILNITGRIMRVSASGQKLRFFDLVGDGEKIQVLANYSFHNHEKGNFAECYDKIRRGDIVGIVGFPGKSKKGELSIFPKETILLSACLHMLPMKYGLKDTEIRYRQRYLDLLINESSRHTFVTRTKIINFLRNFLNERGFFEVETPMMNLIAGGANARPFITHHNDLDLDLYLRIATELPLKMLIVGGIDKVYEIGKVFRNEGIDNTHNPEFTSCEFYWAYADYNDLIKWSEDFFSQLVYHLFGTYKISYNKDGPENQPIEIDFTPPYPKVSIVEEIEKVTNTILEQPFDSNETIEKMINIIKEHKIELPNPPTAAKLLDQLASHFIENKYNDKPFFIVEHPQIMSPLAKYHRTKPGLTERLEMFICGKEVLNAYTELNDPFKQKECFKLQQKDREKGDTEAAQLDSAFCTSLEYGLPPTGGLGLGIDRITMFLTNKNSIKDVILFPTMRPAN

## CCCCOC(=O)c1ccc(Nc2cc(C)nc3ccc(OC)cc23)cc1
[1]
  IC50: > 1000 nM
[2]
  IC50: > 1000 nM
[3]
  IC50: > 1000 nM
[4]
  IC50: > 1000 nM
[5]
  IC50: > 2500 nM
[6]
  IC50: > 2500 nM
[7]
  IC50: > 1000 nM

## CCN(CC)CCNc1ncnc2c1[nH]c1ccc(Br)cc12
[1]
  IC50: > 1000 nM
[2]
  IC50: > 1000 nM
[3]
  IC50: > 1000 nM
[4]
  IC50: > 1000 nM
[5]
  IC50: > 2500 nM
[6]
  IC50: > 2500 nM
[7]
  IC50: > 1000 nM

## COc1cccc(C(=O)NC(c2ccc(C)cc2)c2cc(Cl)c3cccnc3c2O)c1 (stereo not given)
[1]
  IC50: > 1000 nM
[2]
  IC50: > 1000 nM
[3]
  IC50: > 1000 nM
[4]
  IC50: > 1000 nM
[5]
  IC50: > 2500 nM
[6]
  IC50: > 2500 nM
[7]
  IC50: > 1000 nM

## Oc1ccc(Br)cc1CN1CCN(Cc2ccc(Cl)cc2)CC1
[1]
  IC50: > 1000 nM
[2]
  IC50: > 1000 nM
[3]
  IC50: > 1000 nM
[4]
  IC50: > 1000 nM
[5]
  IC50: > 2500 nM
[6]
  IC50: > 2500 nM
[7]
  IC50: > 1000 nM

## O=C(Nc1ccc(Cl)c(Cl)c1)Nc1ccc(Cl)c(Cl)c1
[1]
  IC50: > 1000 nM
[2]
  IC50: > 1000 nM
[3]
  IC50: > 1000 nM
[4]
  IC50: > 1000 nM
[5]
  IC50: > 2500 nM
[6]
  IC50: > 2500 nM
[7]
  IC50: > 1000 nM

## COc1ccc(C)c2sc(N(Cc3cccnc3)C(=O)c3ccc(C#N)cc3)nc12
[1]
  IC50: > 1000 nM
[2]
  IC50: > 1000 nM
[3]
  IC50: > 1000 nM
[4]
  IC50: > 1000 nM
[5]
  IC50: > 2500 nM
[6]
  IC50: > 2500 nM
[7]
  IC50: > 1000 nM

## CCOc1cc2c(cc1OCC)C(c1cc(Cl)ccc1O)NCC2 (stereo not given)
[1]
  IC50: > 1000 nM
[2]
  IC50: > 1000 nM
[3]
  IC50: > 1000 nM
[4]
  IC50: > 1000 nM
[5]
  IC50: > 2500 nM
[6]
  IC50: > 2500 nM
[7]
  IC50: > 1000 nM

## Oc1c2c(nc3cc(-c4ccccc4)nn13)CCCC2
[1]
  IC50: > 1000 nM
[2]
  IC50: > 1000 nM
[3]
  IC50: > 1000 nM
[4]
  IC50: > 1000 nM
[5]
  IC50: > 2500 nM
[6]
  IC50: > 2500 nM
[7]
  IC50: > 1000 nM

## COc1cccc(Nc2nc(NCCO)c3ccccc3n2)c1
[1]
  IC50: > 1000 nM
[2]
  IC50: > 1000 nM
[3]
  IC50: > 1000 nM
[4]
  IC50: > 1000 nM
[5]
  IC50: > 2500 nM
[6]
  IC50: > 2500 nM
[7]
  IC50: > 1000 nM

## O=C(Nc1ccsc1C(=O)NC1CCCCC1)c1ccc(F)cc1
[1]
  IC50: > 1000 nM
[2]
  IC50: > 1000 nM
[3]
  IC50: > 1000 nM
[4]
  IC50: > 1000 nM
[5]
  IC50: > 2500 nM
[6]
  IC50: > 2500 nM
[7]
  IC50: > 1000 nM
